According to paper PMC10057528, “Trypanosoma cruzi Sirtuin 2 as a Relevant Druggable Target: New Inhibitors Developed by Computer-Aided Drug Design” (Pharmaceuticals, 2023):
Like-named read-outs stand apart in the source and are kept apart here.

Columns and labels:
[1] = system: T. cruzi Sir2-related protein 1 (TcSir2rp1); set-up: method as in PMID 29357372, PMID 19937668; conditions: cited from earlier work
[2] = system: Chagas disease; set-up: method as in PMID 29357372; conditions: cited from earlier work
[3] = system: T. cruzi amastigote; experiment: In vitro trypanocidal activity with amastigote forms (Tulahuen LacZ, CPRG); assay type: cell-based, Trypanosoma cruzi; conditions: intracellular amastigotes in LLCMK2 cells, ND* = values measured but did not converge IC50 significantly, read-out: IC50 T. cruzi ama
Procedure: In 96-well plates, cells from the LLCMK2 lineage were seeded at a concentration of 5 × 10^4 cells/mL (80 μL). The trypomastigote forms of the Tulahuen LacZ strain were added at a concentration of 5 × 10^5 cells/mL (in a total of 20 μL) and, subsequently incubated for 24 h at 37 °C with a 5% CO2 atmosphere. Next, the trypomastigote forms present in the supernatant were washed, leaving only the amastigote forms. Serial dilutions of the compounds were added (1.95 to 200 µM) and the plate was incubated for 72 h at 37 °C with a 5% CO2 atmosphere. At the end of this period, the CPRG substrate (chlorophenol red β-D-galactopyranoside, 400 μM in 0.3% Triton X-100, pH 7.4) was added and incubated for additional 6 h. After incubation, the sample’s absorbance values were measured using a spectrophotometer at 570 nm.

[4] = Mammalian cell viability assay (MTT); assay type: cell-based; conditions: rhesus monkey; LLCMK2 cells, MTT, 72 h; ND* = values measured but did not converge IC50 significantly; read-out: EC50 Cell Toxicity
Procedure: (§1) LLCMK2 cells were maintained in RPMI-1640 medium supplemented with 10% fetal bovine serum (FBS) (Gibco, Carlsbad, CA, USA), penicillin/streptomycin (100 μg.mL^−1 and 0.1 mg.mL^−1, respectively, Sigma-Aldrich, St. Louis, Mo, USA) and 2 mM L-glutamine, and treated every second day. […] All cells were maintained in humidified CO2 at 37 °C. Cells were obtained at the third passage, propagated, and used in experiments between the fourth and fifth passages. Cells were routinely checked for contamination with mycoplasma by PCR. […] The principle of this method, as described by Mosmann et al., consists in measuring the cellular viability of the enzymatic activity of […] of living cells. […] At the end of the period incubation. 50 μL MTT (Sigma-Aldrich Corp. St. Louis, MO, USA) at the concentration of 2 mg.mL^−1. After 4 h incubation, 50 μL DMSO per well was added to dissolve formazan blue crystals. The absorbance was determined at 570 nm using Biotek Synergy HT microplate spectrophotometer. The percentage of cell viability was determined from the following formula (40): Cell Viability (%) = (Treatment Absorbance)/(Control Absorbance negative) × 100.

[5] = target: T1, TcSir2 (Trypanosoma cruzi, UniProt Q4DP02); experiment: Recombinant TcSir2 activity assay (fluorescent peptide deacetylation); assay type: biochemical; conditions: for IC50: recombinant TcSir2 0.1 μM, 10 μM peptide, 25 μM NAD+, 37 °C, ND = values measured but did not converge IC50 significantly
T1 sequence (Q4DP02 1-359): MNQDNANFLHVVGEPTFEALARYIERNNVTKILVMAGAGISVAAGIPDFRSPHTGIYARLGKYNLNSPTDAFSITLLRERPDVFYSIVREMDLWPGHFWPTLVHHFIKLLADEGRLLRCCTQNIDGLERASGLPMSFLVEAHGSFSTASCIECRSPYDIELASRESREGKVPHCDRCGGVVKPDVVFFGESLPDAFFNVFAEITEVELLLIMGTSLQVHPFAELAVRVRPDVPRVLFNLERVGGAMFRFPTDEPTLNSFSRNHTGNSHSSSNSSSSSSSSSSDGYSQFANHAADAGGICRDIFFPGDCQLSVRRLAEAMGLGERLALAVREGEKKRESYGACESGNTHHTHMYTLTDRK
Description: The peptide substrate (Abz-Gly-Pro-AcetylLys-Ser-Gln-EDDnp, where Abz stands for ortho-aminobenzoic), based on the TcSir2 specificity, was acquired from AminoTech (São Paulo, Brazil). This substrate contains an acetyl-Lys, which is available for trypsin cleavage only when the TcSir2 deacetylates the lysine side chain. After peptide deacetylation and cleavage, the fluorescent moiety (Abz) and the EDDnp suppressor group (N-[2,4-dinitrophenyl] ethylenediamine) are separated, and fluorescence (420 nm) can occur upon excitation at 320 nm. The TcSir2 activity assays were performed at 37 °C in a 25 mM Tris-HCl buffer with pH 8 and containing 137 mM NaCl, 2.7 mM KCl, and 1 mM MgCl2. The assays used 0.1 μM purified TcSir2 enzyme, 10 μM Abz-Gly-Pro-AcetylLys-Ser-Gln-EDDnp peptide, and 25 μM NAD^+ cofactor. After a 15 min incubation, 12 mM nicotinamide and 0.6 mg/mL trypsin (Sigma Aldrich, Sao Paulo, Brazil, N3376) were added to stop the reaction and cleave the deacetylated peptide (30 min at 37 °C). A control was also prepared without trypsin to detect the baseline fluorescence of the uncleaved peptide. Increasing concentrations of the putative inhibitory compound prepared in DMSO were also tested under the same conditions, with controls to detect the potential effect of DMSO at a maximum concentration of 5% (v/v) on TcSir2. Fluorescence was measured using a TECAN-InfinityPro2000 plate reader.
The percentage of inhibition data was calculated using the equation: Inhibition (%) = (1 − vi/vc) × 100, where vi represents the initial rate in the presence of the putative TcSir2 inhibitor, and vc is the initial rate of the control assay containing only DMSO. IC50 values were calculated based on the percentage of inhibition and concentration of the inhibitor using non-linear regression with least squares on GraphPad Prism (v8.1, GraphPad software, La Jolla, CA, USA). […] Km and Vmax in the presence and absence of the inhibitor were obtained by fitting the initial rate and [NAD^+] into the Michaelis-Menten equation on GraphPad Prism (GraphPad Prism version v8.1, for Windows, GraphPad Software, San Diego, California USA, www.graphpad.com).
Supplementary methods – Enzyme kinetic characterisation
The enzyme kinetic assay for TcSir2, based on a previous publication1 was divided into three steps. In the first one, the recombinant TcSir2, NAD+ and the peptide substrate (Abz-Gly-Pro-AcetylLys-Ser-Gln-EDDnp) were incubated for 15 min at 37° C.
In the second step, in order to stop the reaction, 12 mM nicotinamide was added to the reaction medium. Finally in the third step trypsin was added and the reaction medium incubated for 30 min at 37° C, as previously described1. Trypsin cleaves this substrate in the linkage between lysine and serine only when the acetyl moiety had been previously […]
when lysine was acetylated2. […]
r2 = 0.99, Fig. S5a) and the peptide substrate (2.1 µM, r2 = 0.97, Fig. S5b) were determined using seven different substrate concentrations, whereas one of them was kept constant.

[6] = system: LLCMK2 cells; experiment: Mammalian cell viability assay (MTT); assay type: cell-based; conditions: Macaca mulatta, LLC-MK2, Figure 4g; read-out: IC50 mammalian cell-lines
Procedure: as §1

[7] = substrate: NC(=O)c1ccc[n+](C2OC(COP(=O)([O-])OP(=O)(O)OCC3OC(n4cnc5c(N)ncnc54)C(O)C3O)C(O)C2O)c1; experiment: Recombinant TcSir2 activity assay (fluorescent peptide deacetylation); assay type: biochemical, Trypanosoma cruzi; conditions: other: TcSir2, r2 = 0.99; pH 8.0; 37.0 °C
Description: The peptide substrate (Abz-Gly-Pro-AcetylLys-Ser-Gln-EDDnp, where Abz stands for ortho-aminobenzoic), based on the TcSir2 specificity, was acquired from AminoTech (São Paulo, Brazil). This substrate contains an acetyl-Lys, which is available for trypsin cleavage only when the TcSir2 deacetylates the lysine side chain. After peptide deacetylation and cleavage, the fluorescent moiety (Abz) and the EDDnp suppressor group (N-[2,4-dinitrophenyl] ethylenediamine) are separated, and fluorescence (420 nm) can occur upon excitation at 320 nm. The TcSir2 activity assays were performed at 37 °C in a 25 mM Tris-HCl buffer with pH 8 and containing 137 mM NaCl, 2.7 mM KCl, and 1 mM MgCl2. […] A control was also prepared without trypsin to detect the baseline fluorescence of the uncleaved peptide. […] Fluorescence was measured using a TECAN-InfinityPro2000 plate reader.
The percentage of inhibition data was calculated using the equation: Inhibition (%) = (1 − vi/vc) × 100, where vi represents the initial rate in the presence of the putative TcSir2 inhibitor, and vc is the initial rate of the control assay containing only DMSO. IC50 values were calculated based on the percentage of inhibition and concentration of the inhibitor using non-linear regression with least squares on GraphPad Prism (v8.1, GraphPad software, La Jolla, CA, USA). […]

[8] = Trypanosoma cruzi, LLC-MK2, 72 h

## O=C1c2cccc3cccc(c23)C(=O)N1CCCNCCCCNCCCNCCCN1C(=O)c2cccc3cccc(c23)C1=O [BNIP-spermidine, bisnaphthalimidopropyl-spermidine]
[1]
  inhibition of NAD+-dependent deacetylase activity: inhibition
[2]
  performance in the mouse model of Chagas disease: performed poorly

## O=C(Cn1ccnc1[N+](=O)[O-])NCc1ccccc1 [BZN, benznidazole, reference compound]
[3]; [8]
  IC50: 4.55 ± 0.03 µM
[4]
  EC50 at 72 h: 204.1 ± 0.81 µM
[5]; read-out: IC50 (TcSir2)
  IC50: 9.33 ± 0.01 µM

## O=C(NCc1coc(-c2ccccc2)n1)Nc1ccc(-c2noc(C(F)(F)F)n2)cc1 [CDMS-01]
[3]; [8]
  IC50: 76.7 µM
[3]; 72 h
  IC50: 76.68 ± 0.02 µM
[4]
  EC50 at 72 h: 135.9 ± 0.5 µM
[6]
  IC50: 136 µM
[5]
  Ki: 21.5 µM
[5]; 3 µM CDMS-01
  Vmax: 0.29 µM
[5]; 5 µM CDMS-01
  Vmax: 0.29 µM
[5]; 10 µM CDMS-01
  Vmax: 0.29 µM
[5]; 17 µM CDMS-01
  Vmax: 0.29 µM
[5]; 20 µM CDMS-01
  Vmax: 0.29 µM
[5]; 30 µM CDMS-01
  Vmax: 0.29 µM
[5]; 40 µM CDMS-01
  Vmax: 0.29 µM
[5]; IC50 (TcSir2)
  IC50: 40 µM
[5]; effect on apparent Km and Vmax for NAD+
  inhibition mechanism: competitive

## Abz-Gly-Pro-AcetylLys-Ser-Gln-EDDnp
[5]; TcSir2, r2 = 0.97, read-out: Km for the peptide substrate
  Km: 2.1 µM

## NC(=O)c1cccnc1 [Nicotinamide, reference compound]
[5]; IC50 (TcSir2)
  IC50: 987.4 ± 0.64 µM
[1]
  inhibition of NAD+-dependent deacetylase activity: inhibition

B1: TcSir2 (Trypanosoma cruzi strain CL Brener) (protein)
chain: T1 sequence (Q4DP02 1-359)
[7]
  Km: 25 µM
